Here are results for 37 compounds from patent publication US10138233B2, “Imidazole compounds as modulators of FSHR and uses thereof” (Merck Patent GmbH, priority 2013, dated 2018).

Bounds are passed on as bounds.

The test addresses T1, FSHR (Homo sapiens, UniProt P23945).
T1 construct: expressed in transfected cells; host or cells: CHO cells, clone Cho-FSHR-LUC-1-1-43
T1 sequence (P23945 18-695): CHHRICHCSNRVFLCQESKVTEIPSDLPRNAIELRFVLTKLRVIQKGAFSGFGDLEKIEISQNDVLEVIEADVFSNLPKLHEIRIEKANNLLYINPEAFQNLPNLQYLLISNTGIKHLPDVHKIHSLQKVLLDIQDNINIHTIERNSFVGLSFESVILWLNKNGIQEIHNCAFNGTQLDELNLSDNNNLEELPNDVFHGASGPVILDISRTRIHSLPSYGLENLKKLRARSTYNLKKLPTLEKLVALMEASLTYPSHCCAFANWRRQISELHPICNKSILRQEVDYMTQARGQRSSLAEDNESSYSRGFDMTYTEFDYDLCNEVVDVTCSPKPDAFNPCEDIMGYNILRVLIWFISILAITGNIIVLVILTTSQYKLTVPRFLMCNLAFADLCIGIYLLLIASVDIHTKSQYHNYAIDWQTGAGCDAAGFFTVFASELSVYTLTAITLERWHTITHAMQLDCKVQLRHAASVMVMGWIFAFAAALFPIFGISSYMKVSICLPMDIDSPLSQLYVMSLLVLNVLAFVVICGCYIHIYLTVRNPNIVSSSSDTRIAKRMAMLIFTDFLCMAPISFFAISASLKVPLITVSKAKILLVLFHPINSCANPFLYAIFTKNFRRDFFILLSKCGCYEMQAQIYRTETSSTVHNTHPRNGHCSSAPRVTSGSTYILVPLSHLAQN
Put plainly: EC50 of cyclic AMP production in CHO FSHR cells + EC20 FSH (Assay A). The class given is cell-based. To be noted: CHO-FSHR-LUC cells, in presence of EC20 FSH, cAMP HTRF, 1 h 37° C. The procedure: EC50 of cyclic AMP production in CHO FSHR cells+EC20 FSH (Assay A)
2500 Cho-FSHR-LUC-1-1-43 cells were plated per well in 5 μl of phenol red free DMEM/F12+1% FBS. […] Cells were assayed by adding 100 μl of 2×EC20 FSH/IBMX in DMEM/F12+0.1% BSA) by Multidrop to 2 μl of test compound stamped in 384 well plates (compounds are diluted 1:50). […] The compound plate map was as follows: Column 1: 2 μl of DMSO; Column 2: 2 μl of DMSO; Columns 3-12 and 13-24: 2 μl of test compound, diluted 1:4 in 100% DMSO, or 2 μl of FSH, diluted 1:4 in DMEM/F12+0.1% BSA. The starting concentration for FSH was 50 nM (final concentration was 0.5 nM). […] 10 μl of mixed HTRF (CisBio #62AM4PEC) reagents were added per well and incubated at room temperature for 1 h. The plates were read on Envision using the cAMP HTRF—low volume 384 well protocol. […] Values given in percent (%) indicate the percental effect (response) at a certain concentration of agonist relative to the maximum response of the FSH standard.
(Time-resolved FRET reads energy transfer from a long-lived donor to a nearby acceptor.)
As for `COc1cc2c(cc1CC(C)C)-n1c(-c3cn[nH]c3)nc(C(=O)N(C)C(C)(C)C)c1CC2` [Compound 23, 8-Isobutyl-7-methoxy-1-(1H-pyrazol-4-yl)-4,5-dihydro-imidazo[1,5-a]quinoline-3-carboxylic acid tert-butyl-methyl-amide], the concentration for a half-maximal effect (EC50) is 1000 to 5000 nM.

In the case of `COc1cc2c(cc1CC(C)C)-n1c(-c3cccs3)nc(C(=O)NC(C)(C)CO)c1CC2` [Compound 24, 8-Isobutyl-7-methoxy-1-thiophen-2-yl-4,5-dihydro-imidazo[1,5-a]quinoline-3-carboxylic acid (2-hydroxy-1,1-dimethyl-ethyl)-amide], the EC50 was 1000 to 5000 nM.

In the case of `COc1cc2c(cc1CC(C)C)-n1c(-c3cccn3C(=O)OC(C)(C)C)nc(C(=O)N3CCOCC3(C)C)c1CC2` [Compound 26, 2-[3-(3,3-Dimethyl-morpholine-4-carbonyl)-8-isobutyl-7-methoxy-4,5-dihydro-imidazo[1,5-a]quinolin-1-yl]-pyrrole-1-carboxylic acid tert-butyl ester], the concentration giving a half-maximal response (EC50) was 1000 to 5000 nM.

As to `COc1cc2c(cc1CC(C)C)-n1c(-c3cn[nH]c3C)nc(C(=O)N3CCOCC3(C)C)c1CC2` [Compound 27, (3,3-Dimethyl-morpholin-4-yl)-[8-isobutyl-7-methoxy-1-(5-methyl-1H-pyrazol-4-yl)-4,5-dihydro-imidazo[1,5-a]quinolin-3-yl]-methanone], the EC50 lay within 1000 to 5000 nM.

With `COc1cc2c(cc1CC(C)C)-n1c(-c3cc[nH]c3)nc(C(=O)N3CCOCC3(C)C)c1CC2` [Compound 28, (3,3-Dimethyl-morpholin-4-yl)-[8-isobutyl-7-methoxy-1-(1H-pyrrol-3-yl)-4,5-dihydro-imidazo[1,5-a]quinolin-3-yl]-methanone], the concentration giving a half-maximal response (EC50) fell in the range of 100 to 1000 nM.

Regarding `COc1cc2c(cc1CC(C)C)-n1c(-c3ccn(C)n3)nc(C(=O)N3CCOCC3(C)C)c1CC2` [Compound 29, (3,3-Dimethyl-morpholin-4-yl)-[8-isobutyl-7-methoxy-1-(1-methyl-1H-pyrazol-3-yl)-4,5-dihydro-imidazo[1,5-a]quinolin-3-yl]-methanone], the concentration for a half-maximal effect (EC50) fell in the range of 100 to 1000 nM.

Consider `[2H]C([2H])([2H])OC1CCN(C(=O)c2nc(-c3cccs3)n3c2CCc2cc(OC)c(CC(C)C)cc2-3)C1` (stereo not shown) [Compound 33, (8-Isobutyl-7-methoxy-1-thiophen-2-yl-4,5-dihydro-imidazo[1,5-a]quinolin-3-yl)-(3-methoxy-d3-pyrrolidin-1-yl)-methanone], for which the EC50 was more than 5000 nM.

As for `COc1cc2c(cc1OC(C)C)-n1c(-c3cnn(C)c3C)nc(C(=O)N3CCOCC3(C)C)c1CC2` [Compound 35], the 50% effective concentration (EC50) was more than 5000 nM.

With `COc1cc2c(cc1OC(C)C)-n1c(-c3cn(C)nc3C)nc(C(=O)N3CCOCC3(C)C)c1CC2` [Compound 36], the concentration giving a half-maximal response (EC50) is more than 5000 nM.

Regarding `COc1cc2c(cc1OC(C)C)-n1c(-c3c(C)nn(C)c3C)nc(C(=O)N3CCOCC3(C)C)c1CC2` [Compound 37], the EC50 is more than 5000 nM.

Take `COc1cc2c(cc1OC(C)C)-n1c(-c3cccnc3)nc(C(=O)N3CCOCC3(C)C)c1CC2` [Compound 39]: the EC50 was 1000 to 5000 nM.

For the compound `COc1cc2c(cc1OC(C)C)-n1c(-c3ccnn3C)nc(C(=O)N3CCOCC3(C)C)c1CC2` [Compound 40], the EC50 lay in the range of 1000 to 5000 nM.

On to `COc1cc2c(cc1OC(C)C)-n1c(-c3cc(C)nn3C)nc(C(=O)N3CCOCC3(C)C)c1CC2` [Compound 42], for which the EC50 lay within 100 to 1000 nM.

On to `COc1cc2c(cc1OC(C)C)-n1c(-c3ccn(C)n3)nc(C(=O)N3CCOCC3(C)C)c1CC2` [Compound 43], for which the EC50 was more than 5000 nM.

Take `COc1cc2c(cc1OC(C)C)-n1c(-c3cncnc3)nc(C(=O)N3CCOCC3(C)C)c1CC2` [Compound 45]: the EC50 lay within 100 to 1000 nM.

In the case of `COc1cc2c(cc1OC(C)C)-n1c(-c3cn(C)cn3)nc(C(=O)N3CCOCC3(C)C)c1CC2` [Compound 46], the EC50 was more than 5000 nM.

With `COc1cc2c(cc1OC(C)C)-n1c(-c3cncn3C)nc(C(=O)N3CCOCC3(C)C)c1CC2` [Compound 47], the half-maximal effective concentration (EC50) is more than 5000 nM.

As to `COc1cc2c(cc1CC(C)C)-n1c(-c3cccs3)nc(C(=O)NCCNC(C)=O)c1CC2` [Compound 48, 8-Isobutyl-7-methoxy-1-thiophen-2-yl-4,5-dihydro-imidazo[1,5-a]quinoline-3-carboxylic acid (2-acetylamino-ethyl)-amide], the EC50 fell in the range of 1000 to 5000 nM.

As for `COc1cc2c(cc1OC(C)C)-n1c(C3=CCCCO3)nc(C(=O)N3CCOCC3(C)C)c1CC2` [Compound 50], the half-maximal effective concentration (EC50) was 100 to 1000 nM.

With `COC/C=C/c1nc(C(=O)N2CCOCC2(C)C)c2n1-c1cc(OC(C)C)c(OC)cc1CC2` [Compound 51], the concentration for a half-maximal effect (EC50) was 1000 to 5000 nM.

Turning to `COc1cc2c(cc1OC(C)C)-n1c(-c3cn(C)nn3)nc(C(=O)N3CCOCC3(C)C)c1CC2` [Compound 52], the 50% effective concentration (EC50) is more than 5000 nM.

`COc1cc2c(cc1OC(C)C)-n1c(-c3[nH]ncc3C)nc(C(=O)N3CCOCC3(C)C)c1CC2` [Compound 54]: the 50% effective concentration (EC50) lay in the range of 1000 to 5000 nM.

For the compound `COc1cc2c(cc1CC(C)C)-n1c(-c3cccs3)nc(C(=O)NC3(C)COC3)c1CC2` [Compound 55, 8-Isobutyl-7-methoxy-1-thiophen-2-yl-4,5-dihydro-imidazo[1,5-a]quinoline-3-carboxylic acid (3-methyl-oxetan-3-yl)-amide], the EC50 is 100 to 1000 nM.

On to `COc1cc2c(cc1CC(C)C)-n1c(-c3cccs3)nc(C(=O)N3CCOCC34COC4)c1CC2` [Compound 56, (2,8-Dioxa-5-aza-spiro[3.5]non-5-yl)-(8-isobutyl-7-methoxy-1-thiophen-2-yl-4,5-dihydro-imidazo[1,5-a]quinolin-3-yl)-methanone], for which the EC50 is less than 100 nM.

As for `COc1cc2c(cc1CC(C)C)-n1c(-c3cccs3)nc(C(=O)N3CCCC34COC4)c1CC2` [Compound 57, (8-Isobutyl-7-methoxy-1-thiophen-2-yl-4,5-dihydro-imidazo[1,5-a]quinolin-3-yl)-(2-oxa-5-aza-spiro[3.4]oct-5-yl)-methanone], the EC50 lay in the range of 1000 to 5000 nM.

As to `[2H]C([2H])([2H])N(C(=O)c1nc(-c2cccs2)n2c1CCc1cc(OC)c(CC(C)C)cc1-2)C1(C)COC1` [Compound 58, 8-Isobutyl-7-methoxy-1-thiophen-2-yl-4,5-dihydro-imidazo[1,5-a]quinoline-3-carboxylic acid methyl-d3-(3-methyl-oxetan-3-yl)-amide], the half-maximal effective concentration (EC50) is less than 100 nM.

`COc1cc2c(cc1OC(C)C)-n1c(-c3sccc3C)nc(C(=O)N3CCOCC3(C)C)c1CC2` [Compound 60]: the EC50 lay in the range of 100 to 1000 nM.

For `COc1cc2c(cc1OC(C)C)-n1c(-c3cn[nH]c3)nc(C(=O)N3CCOCC3(C)C)c1CC2` [Compound 61], the EC50 was more than 5000 nM.

Consider `COc1cc2c(cc1OC(C)C)-n1c(-c3ccccc3OC)nc(C(=O)N(C)C(C)(C)C)c1CC2` [Compound 62], for which the EC50 was 1000 to 5000 nM.

Take `COc1cc2c(cc1OC(C)C)-n1c(-c3ccc(C)cc3)nc(C(=O)N(C)C(C)(C)C)c1CC2` [Compound 63]: the half-maximal effective concentration (EC50) was in the range of 100 to 1000 nM.

Consider `COc1cc2c(cc1OC(C)C)-n1c(-c3ccc(C#N)cc3)nc(C(=O)N(C)C(C)(C)C)c1CC2` [Compound 64], for which the EC50 was in the range of 1000 to 5000 nM.

Consider `COc1cc2c(cc1OC(C)C)-n1c(-c3cc(Cl)ccc3Cl)nc(C(=O)N(C)C(C)(C)C)c1CC2` [Compound 65], for which the concentration for a half-maximal effect (EC50) is 100 to 1000 nM.

On to `COc1cc2c(cc1OC(C)C)-n1c(-c3cccc(F)c3)nc(C(=O)N(C)C(C)(C)C)c1CC2` [Compound 66], for which the EC50 was 100 to 1000 nM.

For the compound `COc1cc2c(cc1OC(C)C)-n1c(-c3ccccc3Cl)nc(C(=O)N(C)C(C)(C)C)c1CC2` [Compound 67], the EC50 lay within 100 to 1000 nM.

Consider `COc1cc2c(cc1OC(C)C)-n1c(-c3cccc(C(F)(F)F)c3)nc(C(=O)N(C)C(C)(C)C)c1CC2` [Compound 68], for which the EC50 was in the range of 100 to 1000 nM.

With `COc1cc2c(cc1OC(C)C)-n1c(-c3cc[nH]n3)nc(C(=O)N3CCOCC3(C)C)c1CC2` [Compound 69], the half-maximal effective concentration (EC50) is more than 5000 nM.

As to `COc1cc2c(cc1-c1ccn(C)n1)-n1c(-c3ccn(C)c3)nc(C(=O)N3CCOCC3(C)C)c1CC2` [Compound 73, (3,3-Dimethyl-morpholin-4-yl)-[7-methoxy-8-(1-methyl-1H-pyrazol-3-yl)-1-(1-methyl-1H-pyrrol-3-yl)-4,5-dihydro-imidazo[1,5-a]quinolin-3-yl]-methanone], the 50% effective concentration (EC50) is more than 5000 nM.

One may read the EC50 as the concentration at which the effect is half-maximal.
